Structures can show the parent of a compound that is named as a salt.
Legend:
[1] = test system: primary heart muscle cells from newborn rats; assay: Inhibitory activity on heart muscle cell apoptosis (serum-free culture, viable cell number by WST-8); type: cell-based, Wister rats; conditions: Rattus norvegicus, 96 h; mean of three independent experiments; concentration required to increase the mean viable cell number by 50% as compared with that in the absence of test compounds; serum-free Medium 199, 4 days
Source text: Inhibitory Activity on Heart Muscle Cell Apoptosis
Newborn rats (within 1 day afterbirth) were obtained from pregnant Wister rats purchased from Charles River, anesthetized under ether, and sterilized with 70% ethanol, and then their hearts were excised with tweezers. The excised hearts were washed with a phosphate-buffered physiological saline (T900; Takara) and cut into pieces with surgical scissors. These tissue pieces were washed 4 to 5 times with a phosphate-buffered physiological saline to remove a majority of blood-derived non-heart muscle cells. To the tissue pieces derived from 10 newborns, 5 ml of enzyme solution (1.25 mg trypsin (Difco) and 0.25 mg collagenase (Sigma) per ml of phosphate-buffered saline (PBS)) was added and the mixture was stirred with a stirrer at 37° C. for 15 minutes. Another 2.5 ml enzyme solution was then added twice repeatedly at a 15-minutes interval. Then, Medium 199 (Gibco) containing 10% fetal calf serum (Biowiker) was added in a half volume of the enzyme solution to terminate the enzyme reaction. The cells were filtered through a Cell Strainer (Falcon) and then centrifuged at 400×g for 5 minutes, whereby the cells were collected.
The cells thus collected from 10 newborns were suspended in 50 ml Medium 199 containing 10% fetal calf serum, plated onto 100 mm Petri dishes (Iwaki) in a volume of 10 ml/dish and cultured for 1 hour in a CO2 incubator set at 5% CO2 and 37° C. The cells were then recovered, filtered through a Cell Strainer and centrifuged at 400×g for 5 minutes to collect the primary heart muscle cells derived from newborn rats.
Then, the heart muscle cells from 10 newborn rats were suspended in 2 ml low-isotonic solution (prepared by dissolving 8.29 g NH4Cl, 1.0 g KHCO3, 37 mg EDTA/2Na (ethylenediaminetetraacetic acid disodium) (Dojindo) in 1 L of water) and left for 3 minutes to disrupt erythrocytes. After 10 ml Medium 199 containing 10% fetal calf serum was added thereto, the primary heart muscle cells from newborn rats were collected by centrifugation at 400×g for 5 minutes. The cells were suspended in Medium 199 containing 10% fetal calf serum and then filtered through a cell strainer. After 0.3% trypan blue was added to, and mildly mixed with, an aliquot of the resulting cell suspension, the number of heart muscle cells was counted on an erythrocyte counting plate.
The primary heart muscle cells from newborn rats were suspended at a density of 3×10^6 cells/ml in Medium 199 containing 10% fetal calf serum, put onto a 96-well plate in a volume of 0.1 ml/well, and then cultured in a CO2 incubator set at 5% CO2 and 37° C. After the plate was stirred with a micromixer (Taiyo Kagaku Kogyo), the medium was exchanged 3 times with serum-free Medium 199, and then test compounds were added thereto. The cells were cultured for additional 4 days to induce apoptosis. Then, fetal calf serum was added thereto at a concentration of 10%, and the cells were further cultured for about 17 hours in a CO2 incubator set at 5% CO2 and 37° C. Finally, the number of viable cells was determined with Cell Counting Kit (Dojindo) using WST-8 (2-(2-methoxy-4-nitrophenyl)-3-(4-nitrophenyl)-5-(2,4-disulfophenyl)-2H-tetrazolium, monosodium salt) as the coloring substrate to determine the inhibition of the heart muscle cell apoptosis.
The above-mentioned experiment was triplicated in an independent manner.
The Mean minimal effective concentration (±SD) was shown for each test compound (Compounds 1 to 5 obtained in Reference Examples) in Table 1. In Table 1, the minimal effective concentration is defined as the concentration required to increase the mean viable cell number by 50% as compared with that in the absence of test compounds.

Structure (SMILES)	melting point	minimal effective concentration [1] [µM]
O=c1nc(-c2cnccn2)sc2ccccc12 [Example 7, 2-Pyrazinyl-4H-1,3-benzothiazine-4-one]	240.7 to 241.7 °C	0.021
O=c1nc(-c2ccccn2)sc2cc(Cl)ccc12 [Example 10, 7-Chloro-2-(2-pyridyl)-4H-1,3-benzothiazine-4-one]	245.3 to 245.6 °C	0.023
O=c1nc(-c2ccccn2)sc2cc(F)ccc12 [Example 19, 7-Fluoro-2-(2-pyridyl)-4H-1,3-benzothiazine-4-one]	250 to 250.2 °C	0.025
COC(=O)c1ccc(-c2nc(=O)c3ccccc3s2)nc1 [Example 28, Methyl 6-(4-oxo-4H-1,3-benzothiazin-2-yl)nicotinate]		0.025
Cc1ccnc(-c2nc(=O)c3ccc(Cl)cc3s2)c1 [Example 29, 7-Chloro-2-(4-methyl-2-pyridyl)-4H-1,3-benzothiazine-4-one]	246.2 to 246.7 °C	0.035
O=c1nc(-c2ccc(CO)cn2)sc2ccccc12 [Example 48, 2-[5-(hydroxymethyl)-2-pyridyl]-4H-1,3-benzothiazine-4-one]	246.9 to 247.9 °C	0.043
O=c1nc(-c2ccc(C(F)(F)F)cn2)sc2ccccc12 [Example 49, 2-[5-(trifluoromethyl)-2-pyridyl]-4H-1,3-benzothiazine-4-one]	207.2 to 207.4 °C	0.043
O=C(NCc1ccccc1)c1cccc(-c2nc(=O)c3ccccc3s2)n1 [Example 51, N-Benzyl-6-(4-oxo-4H-1,3-benzothiazin-2-yl)-2-pyridinecarboxamide]	197.1 to 197.9 °C	0.034
CCCN(C(=O)c1cccc(-c2nc(=O)c3ccccc3s2)n1)C(=O)N(C)C [Example 52, N,N-Dimethyl-N′-[[6-(4-oxo-4H-1,3-benzothiazin-2-yl)-2-pyridyl]carbonyl]-N′-propylurea]	190.8 to 192.4 °C	0.01
NCCCCCCNC(=O)c1cccc(-c2nc(=O)c3ccccc3s2)n1 [Example 107, N-(6-Aminohexyl)-6-(4-oxo-4H-1,3-benzothiazin-2-yl)-2-pyridinecarboxamide hydrochloride]		0.012
CSc1cc(CCC(=O)OC(C)(C)C)cc(-c2nc(=O)c3ccccc3s2)n1 [Example 341, tert-Butyl 3-[2-(methylthio)-6-(4-oxo-4H-1,3-benzothiazin-2-yl)-4-pyridyl]propanoate]	125.5 to 126.5 °C	
C[S+]([O-])c1cc(CCC(=O)OC(C)(C)C)cc(-c2nc(=O)c3ccccc3s2)n1 (stereo not drawn) [Example 343, tert-Butyl 3-[2-(methylsulfinyl)-6-(4-oxo-4H-1,3-benzothiazin-2-yl)-4-pyridyl]propanoate]	219.5 to 220 °C	
C[S+]([O-])c1cc(CCC(=O)O)cc(-c2nc(=O)c3ccccc3s2)n1 (stereo not drawn) [Example 344, 3-[2-(methylsulfinyl)-6-(4-oxo-4H-1,3-benzothiazin-2-yl)-4-pyridyl]propionic acid]	265.5 to 266 °C	
CC(C)(C)OC(=O)CCc1cc(-c2nc(=O)c3ccccc3s2)nc(S(C)(=O)=O)c1 [Example 345, tert-Butyl 3-[2-(methylsulfonyl)-6-(4-oxo-4H-1,3-benzothiazin-2-yl)-4-pyridyl]propanoate]	223 °C (dec.)	
Cc1nc(-c2nc(=O)c3ccccc3s2)cs1 [Example 347, 2-(2-Methyl-1,3-thiazol-4-yl)-4H-1,3-benzothiazin-4-one]	219 to 220 °C	
O=c1nc(-c2nccs2)sc2ccccc12 [Example 348, 2-(1,3-thiazol-2-yl)-4H-1,3-benzothiazin-4-one]	229.1 to 229.8 °C	
CC(=O)N1CCCC1c1ccnc(-c2nc(=O)c3ccccc3s2)c1 (stereo not drawn) [Example 351, 2-[4-(1-Acetyl-2-pyrrolidinyl)-2-pyridyl]-4H-1,3-benzothiazine-4-one]	206.2 to 207.4 °C	
CC(C)(C)OC(=O)N1CCCC1c1ccnc(-c2nc(=O)c3ccccc3s2)c1 (stereo not drawn) [Example 352, tert-Butyl 2-[2-(4-oxo-4H-1,3-benzothiazin-2-yl)-4-pyridyl]-1-pyrrolidinecarboxylate]	194.8 to 195.8 °C	
CC(C)(C)OC(=O)CCc1cc(C#N)nc(-c2nc(=O)c3ccccc3s2)c1 [Example 355, tert-Butyl 3-[2-cyano-6-(4-oxo-4H-1,3-benzothiazin-2-yl)-4-pyridyl]propanoate]	189.9 to 190.7 °C	

The next lines start with results.

melting point	Structure (SMILES)	minimal effective concentration [1] [µM]
239.9 to 240.4 °C	O=c1nc(-c2ccccn2)sc2ccc(F)cc12 [Example 20, 6-Fluoro-2-(2-pyridyl)-4H-1,3-benzothiazine-4-one]	0.038
256.5 to 257.2 °C	O=c1nc(-c2ccccn2)sc2cccc(F)c12 [Example 21, 5-Fluoro-2-(2-pyridyl)-4H-1,3-benzothiazine-4-one]	0.03
240.6 to 240.9 °C	O=c1nc(-c2cnccn2)sc2cc(Cl)ccc12 [Example 30, 7-Chloro-2-(2-pyrazyl)-4H-1,3-benzothiazine-4-one]	0.012
268 to 268.6 °C	CCCNC(=O)c1ccc(-c2nc(=O)c3ccccc3s2)nc1 [Example 37, 6-(4-Oxo-4H-1,3-benzothiazin-2-yl)-N-propylnicotinamide]	0.037
294.6 to 294.9 °C	NC(=O)c1cccc(-c2nc(=O)c3ccccc3s2)n1 [Example 38, 6-(4-Oxo-4H-1,3-benzothiazin-2-yl)-2-pyridinecarboxamide]	0.013
225 to 225.2 °C	Cc1ccc2c(=O)nc(-c3ccccn3)sc2c1 [Example 39, 7-Methyl-2-(2-pyridyl)-4H-1,3-benzothiazine-4-one]	0.037
208.2 to 208.7 °C	O=c1nc(-c2cccc(CO)n2)sc2ccccc12 [Example 40, 2-[6-(Hydroxymethyl)-2-pyridyl]-4H-1,3-benzothiazine-4-one]	0.044
207.2 to 207.8 °C	CSc1cccc(-c2nc(=O)c3ccccc3s2)n1 [Example 43, 2-(6-Methylthio-2-pyridyl)-4H-1,3-benzothiazine-4-one]	0.053
179.7 to 181.4 °C	CCCNC(=O)c1cccc(-c2nc(=O)c3ccccc3s2)n1 [Example 50, 6-(4-Oxo-4H-1,3-benzothiazin-2-yl)-N-propyl-2-pyridinecarboxamide]	0.02
222.2 to 224 °C	CN(C)C(=O)N(Cc1ccccc1)C(=O)c1cccc(-c2nc(=O)c3ccccc3s2)n1 [Example 53, N-Benzyl-N′,N′-dimethyl-N-[[6-(4-oxo-4H-1,3-benzothiazin-2-yl)-2-pyridyl]carbonyl]-urea]	0.032
235.5 to 236.5 °C	CSc1cc(CCC(=O)O)cc(-c2nc(=O)c3ccccc3s2)n1 [Example 342, 3-[2-(Methylthio)-6-(4-oxo-4H-1,3-benzothiazin-2-yl)-4-pyridyl]propionic acid]	
305.5 to 306 °C	CS(=O)(=O)c1cc(CCC(=O)O)cc(-c2nc(=O)c3ccccc3s2)n1 [Example 346, 3-[2-(Methylsulfonyl)-6-(4-oxo-4H-1,3-benzothiazin-2-yl)-4-pyridyl]propionic acid]	
209.6 to 210.7 °C	Cc1csc(-c2nc(=O)c3ccccc3s2)n1 [Example 349, 2-(4-Methyl-1,3-thiazol-2-yl)-4H-1,3-benzothiazin-4-one]	
271 to 272.7 °C	N#Cc1cc(CCC(=O)O)cc(-c2nc(=O)c3ccccc3s2)n1 [Example 356, 3-[2-Cyano-6-(4-oxo-4H-1,3-benzothiazin-2-yl)-4-pyridyl]propanoate]	
